Experimental data as given in US4297280A, “4,1-Benzoxazepines” (Shionogi & Co., Ltd., priority 1978, dated 1981).
Structures can show the parent of a compound that is named as a salt.

Columns and labels:
[1] = antipentylenetetrazol test (pentylenetetrazol 125 mg/kg s.c.); assay type: in vivo; conditions: sc; SLC ddY male mouse, 20-24 g; pentylenetetrazol preliminarily administered at 125 mg/kg s.c.; read-out: ED50 anti-pentylenetetrazol test
Protocol: (§1) *^1 test animal: SLC ddY male mouse, 20-24 g of body weight
*^2 pentylenetetrazol was preliminarily administered at a dose of 125
mg per 1 kg of body weight in subcutaneous injection.

rotarod performance test = assay type: in vivo; conditions: SLC ddY male mouse, 20-24 g
Source text: as §1

acute lethality (LD50) = conditions: in vivo; DS male mouse, 20-24 g

SMILES: Cc1nnc2n(c1=O)-c1ccc(Cl)cc1C(c1ccccc1Cl)OC2 (centres unmarked)
- ED50 [1]: 0.75 mg/kg
- ED50 (rotarod performance test): 24.5 mg/kg
- LD50 (acute lethality (LD50)): > 1000 mg/kg

SMILES: CCOC1(c2ccccc2Cl)OCc2nnc(CN)n2-c2ccc(Cl)cc21 (centres unmarked) [drawing 27 (OC2H5, 1/2 succinate)]
- ED50 [1]: 1.14 mg/kg
- ED50 (rotarod performance test): 33.5 mg/kg
- LD50 (acute lethality (LD50)): > 1000 mg/kg

SMILES: CN1C(=O)CN=C(c2ccccc2)c2cc(Cl)ccc21 [diazepam, reference compound]
- ED50 [1]: 1.2 mg/kg
- ED50 (rotarod performance test): 13.4 mg/kg

SMILES: CN1CCN=C(c2ccccc2)c2cc(Cl)ccc21 [medazepam, reference compound]
- ED50 [1]: 4.76 mg/kg
- ED50 (rotarod performance test): 104 mg/kg
- LD50 (acute lethality (LD50)): > 1000 mg/kg

SMILES: CN(C)C=C1N=C2COC(c3ccccc3Cl)c3cc(Cl)ccc3N2C1=O (centres unmarked)
- ED50 [1]: 1.6 mg/kg
- ED50 (rotarod performance test): 73.5 mg/kg
- LD50 (acute lethality (LD50)): > 1000 mg/kg

SMILES: CN1CCN(C=C2N=C3COC(c4ccccc4Cl)c4cc(Cl)ccc4N3C2=O)CC1 (centres unmarked)
- ED50 [1]: 3.28 mg/kg
- ED50 (rotarod performance test): > 100 mg/kg
- LD50 (acute lethality (LD50)): > 1000 mg/kg

SMILES: Cc1nnc2n1-c1ccc(Cl)cc1C(c1ccccc1Cl)OC2 (centres unmarked)
- ED50 [1]: 0.74 mg/kg
- ED50 (rotarod performance test): 30.6 mg/kg
- LD50 (acute lethality (LD50)): > 1000 mg/kg

SMILES: NCc1nnc2n1-c1ccc(Cl)cc1C(c1ccccc1Cl)OC2 (centres unmarked) [drawing 27 (H, hydrobromide)]
- ED50 [1]: 2.49 mg/kg
- ED50 (rotarod performance test): 24.1 mg/kg
- LD50 (acute lethality (LD50)): > 1000 mg/kg
